Measured values: patent US20230146455A1, “TREATMENT OF INFLAMMATORY DISEASES WITH PEPTIDES AND PHARMACEUTICAL COMPOSITIONS” (Yuyu Pharma, Inc., priority 2020, published 2023)
“And” between values parts separate entries of the source, which are not always exact repeats. Equal entries are not always repeated. Where a SMILES comes first, the peptide text is derived from it. [ ]: non-standard residue; d: D form. Hyp = O=C(O)[C@@H]1C[C@@H](O)CN1

What was measured:
IL-6 = assay: Example 9 Luminex, LPS hPBMCs: IL-6; type: cell-based, human; details: Bead IL-6, PBMC + LPS(5 ug/ml)
Description: (§1) Treatment Human PBMCs were pretreated with YY-101, YDE-011 and YDE-043 or reference compound; Xiidra® at various concentration (ranging from 1 nM to 100 uM) for 2 h before stimulation. An equal volume of 0.5% DMSO was used as a vehicle control. Then, the cells were treated with LPS at 5 ug/ml. The supernatants from treated cells were harvested at 24 h and placed in a 96 well for Luminex cytokine & chemokine profiling using a Luminex 200 multiplex assay (Luminex; R&D system, USA).
(§2) The main study arm with triplicate wells per group in a 24-well plate: • 1. Blank • 2. PBMC: 0.5% DMSO • 3. PBMC+LPS (5 ug/ml) • 4. PBMC+YY-101 100 uM • 5. PBMC+YY-101 10 uM • 6. PBMC+YY-101 1 uM • 7. PBMC+YY-101 0.1 uM • 8. PBMC+YY-101 0.01 uM • 9. PBMC+LPS (5 ug/ml)+Xiidra®100 uM • 10. PBMC+LPS (5 ug/ml)+Xiidra® 10 uM • 11. PBMC+LPS (5 ug/ml)+Xiidra® 1 uM • 12. PBMC+LPS (5 ug/ml)+Xiidra®0.1 uM • 13. PBMC+LPS (5 ug/ml)+Xiidra®0.01 uM • 14. PBMC+LPS (5 ug/ml)+Xiidra®0.001 uM • 15. PBMC+LPS (5 ug/ml)+YY-101 100 uM • 16. PBMC+LPS (5 ug/ml)+YY-101 10 uM • 17. PBMC+LPS (5 ug/ml)+YY-101 1 uM • 18. PBMC+LPS (5 ug/ml)+YY-101 0.1 uM • 19. PBMC+LPS (5 ug/ml)+YY-101 0.01 uM • 20. PBMC+LPS (5 ug/ml)+YY-101 0.001 uM • 21. PBMC+LPS (5 ug/ml)+YDE-011 100 uM • 22. PBMC+LPS (5 ug/ml)+YDE-011 10 uM • 23. PBMC+LPS (5 ug/ml)+YDE-011 1 uM • 24. PBMC+LPS (5 ug/ml)+YDE-011 0.1 uM • 25. PBMC+LPS (5 ug/ml)+YDE-011 0.01 uM • 26. PBMC+LPS (5 ug/ml)+YDE-011 0.001 uM • 27. PBMC+LPS (5 ug/ml)+YDE-043 100 uM • 28. PBMC+LPS (5 ug/ml)+YDE-043 10 uM • 29. PBMC+LPS (5 ug/ml)+YDE-043 1 uM • 30. PBMC+LPS (5 ug/ml)+YDE-043 0.1 uM • 31. PBMC+LPS (5 ug/ml)+YDE-043 0.01 uM • 32. PBMC+LPS (5 ug/ml)+YDE-043 0.001 uM
(§3) Multiplex assay was used to measure 30 cytokines and chemokines. The 1:2, 1:10 and 1:200 diluted cell supernatant and serial dilution of the standard were dispensed into a 96 well plate at 50 ul/well. Then, the pre-mixed cocktail of antibody-coated magnetic beads was dispensed at 50 ul/well and incubated at room temperature for 2 h in a horizontal orbital microplate shaker at 800±500 rpm. The beads were washed using a magnetic device to prevent loss. The biotin-antibody was dispensed in 50 ul of each well and incubated at room temperature for 1 h in a shaker at 800±500 rpm. After washing, streptavidin-PE was added at 50 ul/well and incubated at room temperature for 30 min in a shaker under the same conditions. Finally, after washing, wash buffer (100 ul/well) was added to the plate and incubated in a shaker for 2 min. The Luminex™ 200 setting were set according to the manufacturer's protocol. The data was calculated with a standard five-parameter logistic nonlinear regression analysis of the data (xPonent software 4.2, USA). The levels of cytokine/chemokine are normalized to the live cell counts (1×10^5 cells/mL) and presented as concentrations per mL (pg/mL or ng/mL).

CCL2/JE/MCP-1 = assay: Example 9 Luminex, LPS hPBMCs: CCL2/JE/MCP-1; type: cell-based, human
Description: as §1, §2, §3

[1] = PBMC + LPS(5 ug/ml) + test article 0.001 uM, Mean
[2] = PBMC + LPS(5 ug/ml) + test article 0.001 uM, individual replicates
[3] = PBMC + LPS(5 ug/ml) + test article 0.01 uM, Mean
[4] = PBMC + LPS(5 ug/ml) + test article 0.01 uM, individual replicates
[5] = PBMC + LPS(5 ug/ml) + test article 0.1 uM, Mean
[6] = PBMC + LPS(5 ug/ml) + test article 0.1 uM, individual replicates
[7] = PBMC + LPS(5 ug/ml) + test article 1 uM, Mean
[8] = PBMC + LPS(5 ug/ml) + test article 1 uM, individual replicates
[9] = PBMC + LPS(5 ug/ml) + test article 10 uM, Mean
[10] = PBMC + LPS(5 ug/ml) + test article 10 uM, individual replicates
[11] = PBMC + LPS(5 ug/ml) + test article 100 uM, Mean
[12] = PBMC + LPS(5 ug/ml) + test article 100 uM, individual replicates

## CC(C)C[C@H](NC(=O)CNC(=O)[C@H](CC(C)C)NC(=O)[C@H](CCC(N)=O)NC(=O)CNC(=O)[C@@H]1C[C@@H](O)CN1)C(=O)N[C@@H](C)C(=O)NCC(=O)N1CCC[C@H]1C(=O)N[C@@H](CCCCN)C(=O)O [YDE-011] (H-[Hyp]GQLGLAGPK-OH)
IL-6; 0.001 uM, Mean
  Concentration: 6729.3 pg/mL
  MFI: 186.6
  conc/live cell: 1268.0 pg/10^5
IL-6; 0.001 uM, single replicates
  Concentration: 6493.4 pg/mL and 6683.4 pg/mL and 7011.0 pg/mL
  MFI: 179.8 and 185.3 and 194.8
  conc/live cell: 1443.0 pg/10^5 and 1152.3 pg/10^5 and 1208.8 pg/10^5
IL-6; 0.01 uM, Mean
  Concentration: 7097.0 pg/mL
  MFI: 197.3
  conc/live cell: 1218.8 pg/10^5
IL-6; 0.01 uM, single replicates
  Concentration: 7131.5 pg/mL and 6924.8 pg/mL and 7234.7 pg/mL
  MFI: 198.3 and 192.3 and 201.3
  conc/live cell: 1150.2 pg/10^5 and 1357.8 pg/10^5 and 1148.4 pg/10^5
IL-6; 0.1 uM, Mean
  Concentration: 6700.6 pg/mL
  MFI: 185.8
  conc/live cell: 1180.6 pg/10^5
IL-6; 0.1 uM, single replicates
  Concentration: 6458.9 pg/mL and 6907.6 pg/mL and 6735.2 pg/mL
  MFI: 178.8 and 191.8 and 186.8
  conc/live cell: 978.6 pg/10^5 and 1381.5 pg/10^5 and 1181.6 pg/10^5
IL-6; 1 uM, Mean
  Concentration: 6838.4 pg/mL
  MFI: 189.8
  conc/live cell: 1364.4 pg/10^5
IL-6; 1 uM, single replicates
  Concentration: 6821.4 pg/mL and 7217.5 pg/mL and 6476.2 pg/mL
  MFI: 189.3 and 200.8 and 179.3
  conc/live cell: 1240.3 pg/10^5 and 1503.6 pg/10^5 and 1349.2 pg/10^5
IL-6; 10 uM, Mean
  Concentration: 6769.7 pg/mL
  MFI: 187.8
  conc/live cell: 1286.9 pg/10^5
IL-6; 10 uM, single replicates
  Concentration: 6890.4 pg/mL and 6700.7 pg/mL and 6717.9 pg/mL
  MFI: 191.3 and 185.8 and 186.3
  conc/live cell: 1276.0 pg/10^5 and 1155.3 pg/10^5 and 1429.3 pg/10^5
IL-6; 100 uM, Mean
  Concentration: 7572.5 pg/mL
  MFI: 211.1
  conc/live cell: 1247.9 pg/10^5
IL-6; 100 uM, single replicates
  Concentration: 7801.4 pg/mL and 7715.7 pg/mL and 7200.3 pg/mL
  MFI: 217.8 and 215.3 and 200.3
  conc/live cell: 1278.9 pg/10^5 and 1264.9 pg/10^5 and 1200.1 pg/10^5
CCL2/JE/MCP-1; [1]
  Concentration: 1881.3 pg/mL
  conc/live cell: 355.2 pg/10^5
CCL2/JE/MCP-1; [2]
  Concentration: 1856.7 pg/mL and 1905.5 pg/mL and 1881.6 pg/mL
  conc/live cell: 412.6 pg/10^5 and 328.5 pg/10^5 and 324.4 pg/10^5
CCL2/JE/MCP-1; [3]
  Concentration: 1974.9 pg/mL
  conc/live cell: 339.7 pg/10^5
CCL2/JE/MCP-1; [4]
  Concentration: 1895.6 pg/mL and 2063.3 pg/mL and 1965.9 pg/mL
  conc/live cell: 300.9 pg/10^5 and 332.8 pg/10^5 and 385.5 pg/10^5
CCL2/JE/MCP-1; [5]
  Concentration: 1708.3 pg/mL
  conc/live cell: 300.6 pg/10^5
CCL2/JE/MCP-1; [6]
  Concentration: 1699.1 pg/mL and 1759.6 pg/mL and 1666.0 pg/mL
  conc/live cell: 257.4 pg/10^5 and 351.9 pg/10^5 and 292.3 pg/10^5
CCL2/JE/MCP-1; [7]
  Concentration: 1797.0 pg/mL
  conc/live cell: 358.5 pg/10^5
CCL2/JE/MCP-1; [8]
  Concentration: 1795.6 pg/mL and 1880.8 pg/mL and 1714.5 pg/mL
  conc/live cell: 326.5 pg/10^5 and 391.8 pg/10^5 and 357.2 pg/10^5
CCL2/JE/MCP-1; [9]
  Concentration: 1564.4 pg/mL
  conc/live cell: 297.3 pg/10^5
CCL2/JE/MCP-1; [10]
  Concentration: 1502.6 pg/mL and 1615.2 pg/mL and 1575.4 pg/mL
  conc/live cell: 278.3 pg/10^5 and 278.5 pg/10^5 and 335.2 pg/10^5
CCL2/JE/MCP-1; [11]
  Concentration: 281.9 pg/mL
  conc/live cell: 46.5 pg/10^5
CCL2/JE/MCP-1; [12]
  Concentration: 252.0 pg/mL and 301.1 pg/mL and 292.6 pg/mL
  conc/live cell: 41.3 pg/10^5 and 49.4 pg/10^5 and 48.8 pg/10^5
